How the values were obtained:
[1] = retrieved from the literature; cited from earlier work
Cx43 mRNA expression = experiment: RT-qPCR analysis of Cx43 mRNA expression; type: cell-based, human; details: DUBCA-hCx43 cells, 24 h; for Cx43 mRNA expression: CC10, CC10/2 and CC10/10 (all tested concentrations)
Cx43 hemichannels = target: T1, Cx43 hemichannels (Homo sapiens, UniProt P17302); experiment: Cx43 hemichannel activity assay (extracellular ATP release, bioluminescence); type: cell-based; details: HEK-hCx43 cells; for extracellular ATP levels at lower concentrations: CC10/2: 8.5 µM azithromycin, 7 µM chloroquine, 6.25 µM hydroxychloroquine; for extracellular ATP release at highest applied concentration: lopinavir 190 µM, remdesivir 500 µM (CC10 x10); for extracellular ATP release (Cx43 hemichannel activity) compared to DF control: 30 min exposure in DF buffer
T1 construct: expressed in transfected cells; host or cells: HEK293 (HEK-hCx43, transduced)
T1 sequence (P17302 whole entry): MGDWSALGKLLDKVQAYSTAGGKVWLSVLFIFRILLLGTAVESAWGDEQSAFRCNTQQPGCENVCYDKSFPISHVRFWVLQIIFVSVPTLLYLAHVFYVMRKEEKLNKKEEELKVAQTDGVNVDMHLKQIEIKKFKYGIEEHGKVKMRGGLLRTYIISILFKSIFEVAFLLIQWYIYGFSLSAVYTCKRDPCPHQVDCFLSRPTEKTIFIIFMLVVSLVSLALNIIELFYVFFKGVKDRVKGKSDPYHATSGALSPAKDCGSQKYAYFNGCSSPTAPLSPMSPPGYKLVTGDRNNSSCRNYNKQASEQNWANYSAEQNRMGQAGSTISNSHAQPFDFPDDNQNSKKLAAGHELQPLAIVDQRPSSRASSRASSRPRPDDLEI

DUBCA-hCx43 cells = experiment: MTT cell viability assay for CC10 determination, 24 h drug exposure; details: 24 h exposure; for CC10 (concentration inducing 10% cell death): extrapolated from concentration-response curves
[2] = system: gap junctional communication; details: cited from earlier work
Cx43 protein expression = details: cited from earlier work

| SMILES | Cmax (total peak plasma concentration at therapeutic dose) [1] | Cx43 mRNA expression (Cx43 mRNA expression) | extracellular ATP levels at lower concentrations (Cx43 hemichannels; 30 min) | CC10 (concentration inducing 10% cell death) (DUBCA-hCx43 cells) [µM] | extracellular ATP release at highest applied concentration (Cx43 hemichannels; 30 min) | Cx43 mRNA expression at 5 µM (Cx43 mRNA expression; effect only seen at 5 µM) | extracellular ATP release (Cx43 hemichannel activity) compared to DF control (Cx43 hemichannels) | cytotoxic effect on the cells (DUBCA-hCx43 cells) | gap junctional communication [2] | concentration dependence of ATP release (Cx43 hemichannels; 30 min, stepwise increase in ATP at lower concentrations) | Cx43 protein expression in cardiomyocytes (Cx43 protein expression) |
| --- | --- | --- | --- | --- | --- | --- | --- | --- | --- | --- | --- |
| CC[C@H]1OC(=O)[C@H](C)[C@@H](O[C@H]2C[C@@](C)(OC)[C@@H](O)[C@H](C)O2)[C@H](C)[C@@H](O[C@@H]2O[C@H](C)C[C@H](N(C)C)[C@H]2O)[C@](C)(O)C[C@@H](C)CN(C)[C@H](C)[C@@H](O)[C@]1(C)O [Azithromycin (dihydrate), Azithromycin] | 0.52 [23] µM | no effects | increase extracellular ATP levels | 17 | – | – | – | – | – | – | – |
| Cc1cccc(C)c1OCC(=O)N[C@@H](Cc1ccccc1)[C@@H](O)C[C@H](Cc1ccccc1)NC(=O)[C@H](C(C)C)N1CCCNC1=O [Lopinavir] | – | no effects | – | 19 | released a significantly higher amount of ATP | – | – | – | – | – | – |
| CCC(CC)COC(=O)[C@H](C)N[P@](=O)(OC[C@H]1O[C@@](C#N)(c2ccc3c(N)ncnn23)[C@H](O)[C@@H]1O)Oc1ccccc1 [Remdesivir] | 9.03 [29] µM | – | – | 50 | released a significantly higher amount of ATP | decrease in Cx43 mRNA expression | – | – | – | – | – |
| NC(=O)c1nc(F)c[nH]c1=O [Favipiravir] | 53.4 [26] µM | no effects | – | >400 | – | – | not significantly different from the DF control | did not show any cytotoxic effect | – | – | – |
| C[C@@H]1C[C@H]2[C@@H]3CCC4=CC(=O)C=C[C@]4(C)[C@@]3(F)[C@@H](O)C[C@]2(C)[C@@]1(O)C(=O)CO [Dexamethasone] | 0.63 [25] µM | no effects | – | >200 | – | – | not significantly different from the DF control | did not show any cytotoxic effect | reduce gap junctional communication | might have a concentration-dependent effect on ATP release | – |
| NC(=O)c1ncn([C@@H]2O[C@H](CO)[C@@H](O)[C@H]2O)n1 [Ribavirin] | – | no effects | – | 10 | – | – | not significantly different from the DF control | – | – | – | – |
| CCN(CC)CCCC(C)Nc1ccnc2cc(Cl)ccc12 (stereo not drawn) [Chloroquine (diphosphate), Chloroquine] | 0.81 [24] µM | no effects | increase extracellular ATP levels | – | – | – | – | – | did not had any effects | – | – |
| CCN(CCO)CCCC(C)Nc1ccnc2cc(Cl)ccc12 (stereo not drawn) [Hydroxychloroquine (sulphate), Hydroxychloroquine] | – | no effects | increase extracellular ATP levels | 12.5 | – | – | – | – | – | – | induced an elevation of Cx43 protein expression |
| CC(C)c1nc(CN(C)C(=O)N[C@H](C(=O)N[C@@H](Cc2ccccc2)C[C@H](O)[C@H](Cc2ccccc2)NC(=O)OCc2cncs2)C(C)C)cs1 [Ritonavir] | 1.17 [31] µM | no effects | – | 16 | – | – | not significantly different from the DF control | – | – | – | – |
| CC1(C)[C@@H](OC(=O)CCC(=O)O)CC[C@]2(C)[C@H]3C(=O)C=C4[C@@H]5C[C@@](C)(C(=O)O)CC[C@]5(C)CC[C@@]4(C)[C@]3(C)CC[C@@H]12 [Cbx, carbenoxolone] | – | – | – | – | – | – | lower ATP levels | – | – | – | – |
